CCN(C(C)=O)c1cn(-c2cccnc2)nc1Cl
melting point: 87 to 91 °C
